From article PMC7341468 (BMC Pharmacology & Toxicology, 2020)

Legend:
[1] = test system: methicillin-resistant Staphylococcus aureus (MRSA)
Method: This retrospective study was conducted between June 2015 and May 2019, and was approved by the Institutional Review Board of Hyogo College of Medicine (No. 3266). […] The analysis of Cmin and the safety population included all eligible patients.

MRSA isolates = conditions: all MRSA isolates; microdilution, CLSI M02 and M07

teicoplanin was tested, and the “Clinical success at the end of the therapy” value ([1]; all patients of the clinical efficacy population, 55 of 76 patients) was 72.4%, the “Crude odds ratio (95% CI) for early clinical response” value ([1]; factor: Enhanced high dose loading regimen, univariate analysis) was 0.90 (0.31–2.63) and the “Adjusted odds ratio (95%CI) for early clinical response” value ([1]; human, in vivo) was 3.95 (1.25–12.53). For the same substance, the “Teicoplanin MICs” value (MRSA isolates) was at most 2 µg/mL.
